Test results from US12152038B2, “Vasopressin receptor antagonists and products and methods related thereto” (Neumora Therapeutics, Inc., priority 2017, dated 2024).

What follows are molecules tested against T1, human Arginine Vasopressin Receptor 1b (AVPR1b) (Homo sapiens, UniProt P47901) (assay: Vasopressin V1b receptor antagonist assay (FLIPR calcium, CHO-AVPR1b cells)).
T1 construct: expressed in transfected cells; host or cells: CHO (CHO-AVPR1b, kept under G418 selection)
T1 sequence (P47901 1-424): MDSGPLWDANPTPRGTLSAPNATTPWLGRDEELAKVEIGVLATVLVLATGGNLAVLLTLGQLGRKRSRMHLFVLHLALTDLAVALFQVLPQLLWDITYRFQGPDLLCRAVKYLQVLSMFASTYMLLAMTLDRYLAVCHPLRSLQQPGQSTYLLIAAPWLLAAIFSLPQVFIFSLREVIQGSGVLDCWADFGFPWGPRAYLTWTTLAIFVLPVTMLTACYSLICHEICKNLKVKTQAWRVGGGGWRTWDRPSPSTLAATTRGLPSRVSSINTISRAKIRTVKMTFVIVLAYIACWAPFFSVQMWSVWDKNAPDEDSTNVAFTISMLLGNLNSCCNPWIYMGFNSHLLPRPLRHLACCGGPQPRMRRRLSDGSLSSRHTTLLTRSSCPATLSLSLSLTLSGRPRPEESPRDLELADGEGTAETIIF
Format: cell-based
Description: The purpose of the assay was to determine the inhibitory effect of synthesized compounds on the Vasopressin V1b receptor. The assay was performed in Chinese Hamster Ovary (CHO) cells expressing the human Arginine Vasopressin Receptor 1b (AVPR1b). Arginine Vasopressin (AVP) evokes an increase in intracellular calcium in CHO-AVPR1b cells which is measured in a fluorescence assay on the FLIPR^TETRA using calcium sensitive dyes. Test compounds were assessed for their ability to affect the magnitude of the response to AVP, with antagonists showing a concentration-dependent reduction in the AVP-mediated fluorescence.
CHO-AVPR1b cells were maintained in routine culture in T175 Flasks at 37° C., 5% CO2. The growth medium consisted of Ham's F12 media supplemented with 10% v/v fetal bovine serum, 1× non-essential amino acids, and 0.4 mg/ml Geneticin G418.
Cells were harvested from T175 flasks when they were 80-90% confluent by first washing the cell monolayer with PBS and then dissociated using trypsin 0.05%/EDTA (3 mL for a T175 Flask). The flasks were incubated at room temperature until the cells detached. To the cell suspension, 10 ml of growth media was added and the cell density determined using the Vi-Cell automated cell counter. The cells were spun at 1000 rpm for 3 minutes, then the supernatant was carefully removed and discarded. The cell pellet was re-suspended at 6.0e^5 cells/ml in growth media. 25 μL of cells in growth media was dispensed into each well (15,000 cells per well) of a poly-D-lysine coated black, clear bottomed, 384-well plate. The plates were incubated at 37° C., 5% CO2 overnight.
At the start of each assay day, the potency of AVP was assessed and an EC80 concentration determined for subsequent compound profiling. Assays were performed using a two-step addition protocol on the FLIPR^TETRA; first addition of 5 μl of control or test compound at 10× final in assay buffer with 15 min incubation at 37° C., 5% CO2 followed by 10 μl of AVP at 6× final concentration in assay buffer. Changes in fluorescence were monitored for 3 min after both additions on the FLIPR^TETRA using 470-495 nm excitation and 515-575 nm emission wavelengths. The assay buffer consisted of HBSS (+Ca/+Mg) supplemented with 20 mM HEPES, and for the preparation of the AVP agonist only, 0.1% w/v bovine serum albumin. The assay was initiated by the removal of growth media from the cells and replacement with 45 μl of Calcium-6 dye (Molecular Devices) prepared at 1× in assay buffer. Cells were loaded with dye for 60-90 min at 37° C., 5% CO2 before initiation of the FLIPR^TETRA protocol. […] For compound profiling, test compounds were first serially diluted in DMSO (10-point curve, 1:3 dilutions) then diluted 33.3-fold in assay buffer prior to addition to the dye loaded cells on the FLIPR^TETRA. At the end of the incubation period 10 μl of AVP in assay buffer containing 0.1% BSA was added at the previously determined EC80 concentration.
In-plate controls for the assay included a Nelivaptan concentration-response curve as the reference V1b antagonist and an AVP concentration-response curve to confirm the reproducibility of the EC80 used for the compound challenge.

IC50, ≥ 1 µM:
Cc1cncc(N2CC3(CN(C(=O)N4c5ccc(F)cc5OCC4C)C3)C2)n1 (single isomer, unassigned) [20-2-A]
CC1COc2cc(F)ccc2N1C(=O)N1CC2(C1)CN(c1ncc(F)cn1)C2 (single isomer, unassigned) [18-4-B]
O=C(N1CC2(C1)CN(c1cnccn1)C2)N1CCOc2cc(Cl)ccc21 [8-3]
Cc1cncc(N2CC3(CN(C(=O)N4c5ccc(F)cc5OCC4C)C3)C2)n1 (stereo not drawn) [20-2]
COc1ccnc(N2CC3(CN(C(=O)N4c5ccc(Cl)cc5OCC4C)C3)C2)c1 (stereo not drawn) [20-8]
Cc1nc(N2CC3(CN(C(=O)N4CCOc5cc(Cl)ccc54)C3)C2)ncc1F [6-1, (7-chloro-2,3-dihydro-4H-benzo[b][1,4]oxazin-4-yl)(6-(5-fluoro-4-methylpyrimidin-2-yl)-2,6-diazaspiro[3.3]heptan-2-yl)methanone]
O=C(N1CC2(C1)CN(c1ccc(F)cn1)C2)N1CCOCc2cc(Cl)ccc21 [8-4]
CC1COc2cc(F)ccc2N1C(=O)N1CC2(C1)CN(c1noc3ccccc13)C2 (stereo not drawn) [4-3]
CC1COc2cc(Cl)ccc2N1C(=O)N1CC2(C1)CN(c1cc(C#N)ccn1)C2 (single isomer, unassigned) [20-6-B]
Cc1ccnc(N2CC3(CN(C(=O)N4c5ccc(Cl)cc5OCC4C)C3)C2)n1 (single isomer, unassigned) [20-12-B]
Cc1ccnc(N2CC3(CN(C(=O)N4CCOc5cc(Cl)ccc54)C3)C2)c1 [1-14]
CC1COc2cc(Cl)c(F)cc2N1C(=O)N1CC2(C1)CN(c1ncccn1)C2 (single isomer, unassigned) [19-2-B]
CC1COc2cc(F)c(F)cc2N1C(=O)N1CC2(C1)CN(c1ncccn1)C2 (stereo not drawn) [19-1, (6,7-difluoro-3-methyl-2,3-dihydro-4H-benzo[b][1,4]oxazin-4-yl)(6-(pyrimidin-2-yl)-2,6-diazaspiro[3.3]heptan-2-yl)methanone]
Cc1ccnc(N2CC3(CN(C(=O)N4c5ccc(F)cc5OCC4C)C3)C2)c1 (single isomer, unassigned) [20-4-B]
O=C(N1CC2(C1)CN(c1cnccn1)C2)N1CCC(O)c2cc(Cl)ccc21 (single isomer, unassigned) [13-3-A]
COc1ccnc(N2CC3(CN(C(=O)N4c5ccc(Cl)cc5OCC4C)C3)C2)c1 (single isomer, unassigned) [20-8-B]
CC1COc2cc(Cl)ccc2N1C(=O)N1CC2(C1)CN(c1noc3cccnc13)C2 (single isomer, unassigned) [18-3-B]
COc1ccnc(N2CC3(CN(C(=O)N4c5ccc(Cl)cc5OCC4C)C3)C2)n1 (stereo not drawn) [20-9]
CC1COc2cc(F)ccc2N1C(=O)N1CC2(C1)CN(c1ncccn1)C2 (stereo not drawn) [18-1, (7-fluoro-3-methyl-2,3-dihydro-4H-benzo[b][1,4]oxazin-4-yl)(6-(pyrimidin-2-yl)-2,6-diazaspiro[3.3]heptan-2-yl)methanone]
CC1COc2cc(Cl)ccc2N1C(=O)N1CC2(C1)CN(c1cccnc1)C2 (stereo not drawn) [20-1, (7-chloro-3-methyl-2,3-dihydro-4H-benzo[b][1,4]oxazin-4-yl)(6-(pyridin-3-yl)-2,6-diazaspiro[3.3]heptan-2-yl)methanone]
CCC1COc2cc(Cl)ccc2N1C(=O)N1CC2(C1)CN(c1ccccn1)C2 (stereo not drawn) [11-1, (7-chloro-3-ethyl-2,3-dihydro-4H-benzo[b][1,4]oxazin-4-yl)(6-(pyridin-2-yl)-2,6-diazaspiro[3.3]heptan-2-yl)methanone]
O=C(N1CC2(C1)CN(c1ccccn1)C2)N1CCC(O)c2cc(Cl)ccc21 (single isomer, unassigned) [13-2-B]
O=C(N1CC2(C1)CN(c1ccc(F)cn1)C2)N1CCC(F)c2cc(Cl)ccc21 (stereo not drawn) [14-1, (6-chloro-4-fluoro-3,4-dihydroquinolin-1(2H)-yl)(6-(5-fluoropyridin-2-yl)-2,6-diazaspiro[3.3]heptan-2-yl)methanone]
COc1ccnc(N2CC3(CN(C(=O)N4c5ccc(Cl)cc5OCC4C)C3)C2)n1 (single isomer, unassigned) [20-9-B]
CC1COc2cc(Cl)c(F)cc2N1C(=O)N1CC2(C1)CN(c1ncccn1)C2 (stereo not drawn) [19-2]
Cc1ccnc(N2CC3(CN(C(=O)N4c5ccc(Cl)cc5OCC4C)C3)C2)c1 (stereo not drawn) [20-11]
Cc1cccnc1N1CC2(CN(C(=O)N3CCOc4cc(Cl)ccc43)C2)C1 [1-5]
CC1COc2cc(F)ccc2N1C(=O)N1CC2(C1)CN(c1cc(C#N)ccn1)C2 (single isomer, unassigned) [20-3-B]
CC1COc2cc(F)ccc2N1C(=O)N1CC2(C1)CN(c1ccc(F)cn1)C2 (stereo not drawn) [12-1, (7-fluoro-3-methyl-2,3-dihydro-4H-benzo[b][1,4]oxazin-4-yl)(6-(5-fluoropyridin-2-yl)-2,6-diazaspiro[3.3]heptan-2-yl)methanone]
O=C(N1CC2(C1)CN(c1ccc(F)cn1)C2)N1CCOc2cc(Cl)ccc21 [9-7]
COc1ccc2c(c1)OCCN2C(=O)N1CC2(C1)CN(c1ccc(F)cn1)C2 [9-2]
Cc1cnc(N2CC3(CN(C(=O)N4c5ccc(Cl)cc5OCC4C)C3)C2)cn1 (single isomer, unassigned) [20-5-B]
CC1COc2cc(F)c(F)cc2N1C(=O)N1CC2(C1)CN(c1ccc(F)cn1)C2 (single isomer, unassigned) [19-5-B]
Cc1nc(N2CC3(CN(C(=O)N4c5ccc(Cl)cc5OCC4C)C3)C2)ncc1F (stereo not drawn) [20-7]
CC1COc2cc(Cl)c(F)cc2N1C(=O)N1CC2(C1)CN(c1cccnn1)C2 (single isomer, unassigned) [19-4-A]
CC1COc2cc(Cl)ccc2N1C(=O)N1CC2(C1)CN(c1cc(C#N)ccn1)C2 (stereo not drawn) [20-6]
Cc1nccnc1N1CC2(CN(C(=O)N3c4ccc(Cl)cc4OCC3C)C2)C1 (single isomer, unassigned) [20-10-A]
O=C(N1CC2(C1)CN(c1ccc(F)cn1)C2)N1CCc2cc(Cl)ccc21 [8-11]
COc1ccnc(N2CC3(CN(C(=O)N4CCOc5cc(Cl)ccc54)C3)C2)c1 [1-15]
CC1COc2cc(F)c(F)cc2N1C(=O)N1CC2(C1)CN(c1cccnn1)C2 (stereo not drawn) [19-3]
O=C(N1CC2(C1)CN(c1ncccn1)C2)N1CCOc2cc(Cl)ccc21 [1-4]
O=C(N1CC2(C1)CN(c1ncc(F)cn1)C2)N1CCOc2cc(Cl)ccc21 [4-2]
O=C(N1CC2(C1)CN(c1cccnn1)C2)N1CCOc2cc(Cl)c(F)cc21 [1-81]
CC1CN(C(=O)N2CC3(C2)CN(c2ccc(F)cn2)C3)c2ccc(Cl)cc2O1 (single isomer, unassigned) [9-3-A]
CC1COc2cc(Cl)ccc2N1C(=O)N1CC2(C1)CN(c1cccnn1)C2 (single isomer, unassigned) [9-1-A]
CC1COc2cc(F)c(F)cc2N1C(=O)N1CC2(C1)CN(c1ccc(F)cn1)C2 (stereo not drawn) [19-5]
O=C(N1CC2(C1)CN(c1ccccn1)C2)N1CCc2cc(Cl)ccc21 [1-77]
CC1COc2cc(F)c(F)cc2N1C(=O)N1CC2(C1)CN(c1ncccn1)C2 (single isomer, unassigned) [19-1-B]
